Laboratory results published in US20240376099A1, “COMPOUNDS AND COMPOSITIONS AS INHIBITORS OF ENDOSOMAL TOLL-LIKE RECEPTORS” (Novartis AG, priority 2016, published 2024).

molecular target: T1, TLR7 (Homo sapiens, UniProt Q9NYK1); assay: huPBMC TLR7 Antagonist IFNα Assay; type: cell-based; details: human PBMCs stimulated with ssRNA40 10 μg/mL (DOTAP), 14-16 hrs; IFNα2b AlphaLISA read-out
T1 construct: Fresh blood was collected from normal human donors; endogenous in cells; host or cells: human PBMCs from fresh donor blood
T1 sequence (Q9NYK1 27-1049): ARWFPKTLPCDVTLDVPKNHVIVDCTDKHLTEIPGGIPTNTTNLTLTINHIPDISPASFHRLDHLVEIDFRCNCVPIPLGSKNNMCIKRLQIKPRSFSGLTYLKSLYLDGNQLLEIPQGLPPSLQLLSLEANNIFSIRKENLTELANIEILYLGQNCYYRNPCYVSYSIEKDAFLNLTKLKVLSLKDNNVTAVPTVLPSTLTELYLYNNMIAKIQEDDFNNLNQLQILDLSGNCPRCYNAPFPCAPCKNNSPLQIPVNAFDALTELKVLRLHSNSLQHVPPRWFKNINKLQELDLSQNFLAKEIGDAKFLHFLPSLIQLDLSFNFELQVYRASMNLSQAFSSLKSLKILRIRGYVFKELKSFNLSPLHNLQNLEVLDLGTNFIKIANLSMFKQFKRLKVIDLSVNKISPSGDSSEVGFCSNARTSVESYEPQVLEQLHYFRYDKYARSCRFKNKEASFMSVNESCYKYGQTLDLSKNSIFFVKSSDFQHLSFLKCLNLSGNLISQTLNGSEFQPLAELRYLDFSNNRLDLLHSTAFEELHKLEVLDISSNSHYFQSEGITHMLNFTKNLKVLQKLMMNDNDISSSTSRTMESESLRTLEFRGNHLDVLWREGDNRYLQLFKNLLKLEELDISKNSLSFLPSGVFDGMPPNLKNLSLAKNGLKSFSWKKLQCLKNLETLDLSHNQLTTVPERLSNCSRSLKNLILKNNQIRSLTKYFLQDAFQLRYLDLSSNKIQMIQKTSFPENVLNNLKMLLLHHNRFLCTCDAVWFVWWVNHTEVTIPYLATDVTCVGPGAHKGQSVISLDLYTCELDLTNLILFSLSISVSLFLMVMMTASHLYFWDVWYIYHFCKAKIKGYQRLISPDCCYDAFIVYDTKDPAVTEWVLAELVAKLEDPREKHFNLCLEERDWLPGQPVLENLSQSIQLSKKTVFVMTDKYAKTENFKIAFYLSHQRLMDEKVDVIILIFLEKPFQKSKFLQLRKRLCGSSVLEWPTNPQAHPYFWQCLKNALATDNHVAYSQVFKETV
Summary of the method: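 Human PBMCs from fresh donor blood (150,000 cells/well) stimulated 14–16 h at 37 °C with DOTAP-complexed ssRNA40 (final 1 μg/ml for TLR8, 10 μg/mL for TLR7) or ODN2216 (final 0.3 μM, TLR9), 0.25% DMSO, ten-point 1/3 compound dilutions. Supernatant IL-6 read by HTRF (TLR8); IFNα by IFNα2b AlphaLISA (TLR7/TLR9).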

| SMILES | IC50 [nM] |
| --- | --- |
| Cc1cc(N2CCc3c(c(C)nn3CC34CCC(N5C[C@H](C)O[C@@H](C)C5)(CC3)CC4)C2)c2cnn(C)c2n1 [compound 111, (2S,6S)-4-(4-((5-(1,6-dimethyl-1H-pyrazolo[3,4-b]pyridin-4-yl)-3-methyl-4,5,6,7-tetrahydro-1H-pyrazolo[4,3-c]pyridin-1-yl)methyl)bicyclo[2.2.2]octan-1-yl)-2,6-dimethylmorpholine] | 28 |
| Cc1cc(N2CCc3c(c(C)nn3CC34CCC(NCC5CCC5)(CC3)CO4)C2)c2cnn(C)c2n1 [compound 112, N-(cyclobutylmethyl)-1-((5-(1,6-dimethyl-1H-pyrazolo[3,4-b]pyridin-4-yl)-3-methyl-4,5,6,7-tetrahydro-1H-pyrazolo[4,3-c]pyridin-1-yl)methyl)-2-oxabicyclo[2.2.2]octan-4-amine] | 24 |
| Cc1cc(N2CCc3c(c(C)nn3CC34CCC(N5C[C@@H](C)O[C@H](C)C5)(CC3)CC4)C2)c2cnn(C)c2n1 [compound 113, (2R,6R)-4-(4-((5-(1,6-dimethyl-1H-pyrazolo[3,4-b]pyridin-4-yl)-3-methyl-4,5,6,7-tetrahydro-1H-pyrazolo[4,3-c]pyridin-1-yl)methyl)bicyclo[2.2.2]octan-1-yl)-2,6-dimethylmorpholine] | 53 |
| Cc1cc(N2CCc3c(c(C)nn3CC34CCC(N5CC6(COC6)C5)(CC3)CC4)C2)c2cnn(C)c2n1 [compound 116, 6-(4-((5-(1,6-dimethyl-1H-pyrazolo[3,4-b]pyridin-4-yl)-3-methyl-4,5,6,7-tetrahydro-1H-pyrazolo[4,3-c]pyridin-1-yl)methyl)bicyclo[2.2.2]octan-1-yl)-2-oxa-6-azaspiro[3.3]heptane] | 9 |
| Cc1cc(N2CCc3c(c(C)nn3CC34CCC(NCC(C)(C)O)(CC3)CC4)C2)c2cnn(C)c2n1 [compound 123, 1-((4-((5-(1,6-dimethyl-1H-pyrazolo[3,4-b]pyridin-4-yl)-3-methyl-4,5,6,7-tetrahydro-1H-pyrazolo[4,3-c]pyridin-1-yl)methyl)bicyclo[2.2.2]octan-1-yl)amino)-2-methylpropan-2-ol] | 24 |
| CCNCC(=O)NC12CCC(Cn3nc(C)c4c3CCN(c3cc(C)nc5cn[nH]c35)C4)(CC1)CC2 [compound 124, 2-(ethylamino)-N-(4-((3-methyl-5-(5-methyl-1H-pyrazolo[4,3-b]pyridin-7-yl)-4,5,6,7-tetrahydro-1H-pyrazolo[4,3-c]pyridin-1-yl)methyl)bicyclo[2.2.2]octan-1-yl)acetamide] | 1040 |
| Cc1cc(N2CCc3c(c(C)nn3CC34CCC(NC(=O)C5CNCCO5)(CC3)CC4)C2)c2cnn(C)c2n1 (stereo not shown) [compound 125, N-(4-((5-(1,6-dimethyl-1H-pyrazolo[3,4-b]pyridin-4-yl)-3-methyl-4,5,6,7-tetrahydro-1H-pyrazolo[4,3-c]pyridin-1-yl)methyl)bicyclo[2.2.2]octan-1-yl)morpholine-2-carboxamide] | 4 |
| CCNC12CCC(Cn3nc(C)c4c3CCN(c3ccnc(-c5ccccc5)c3)C4)(CC1)CC2 [compound 127, N-ethyl-4-((3-methyl-5-(2-phenylpyridin-4-yl)-4,5,6,7-tetrahydro-1H-pyrazolo[4,3-c]pyridin-1-yl)methyl)bicyclo[2.2.2]octan-1-amine] | 259 |
| Cc1cc(N2CCc3c(c(C)nn3CC34CCC(N5CCOC[C@@H]5C)(CC3)CC4)C2)c2cnn(C)c2n1 [compound 128, (S)-4-(4-((5-(1,6-dimethyl-1H-pyrazolo[3,4-b]pyridin-4-yl)-3-methyl-4,5,6,7-tetrahydro-1H-pyrazolo[4,3-c]pyridin-1-yl)methyl)bicyclo[2.2.2]octan-1-yl)-3-methylmorpholine] | 6 |
| Cc1cc(N2CCc3c(c(C)nn3CC34CCC(N5CCOC[C@H]5C)(CC3)CC4)C2)c2cnn(C)c2n1 [compound 129, (R)-4-(4-((5-(1,6-dimethyl-1H-pyrazolo[3,4-b]pyridin-4-yl)-3-methyl-4,5,6,7-tetrahydro-1H-pyrazolo[4,3-c]pyridin-1-yl)methyl)bicyclo[2.2.2]octan-1-yl)-3-methylmorpholine] | 8 |
| COCCNC12CCC(Cn3nc(C)c4c3CCN(c3ccnc(-c5ccccc5)c3)C4)(CC1)CC2 [compound 130, N-(2-methoxyethyl)-4-((3-methyl-5-(2-phenylpyridin-4-yl)-4,5,6,7-tetrahydro-1H-pyrazolo[4,3-c]pyridin-1-yl)methyl)bicyclo[2.2.2]octan-1-amine] | 1330 |

The remaining lines, values ahead:

| IC50 [nM] | SMILES |
| --- | --- |
| 10 | CCNCC(=O)NC12CCC(Cn3nc(C)c4c3CCN(c3cc(C)nc5c3cnn5C)C4)(CC1)CC2 [compound 114, N-(4-((5-(1,6-dimethyl-1H-pyrazolo[3,4-b]pyridin-4-yl)-3-methyl-4,5,6,7-tetrahydro-1H-pyrazolo[4,3-c]pyridin-1-yl)methyl)bicyclo[2.2.2]octan-1-yl)-2-(ethylamino)acetamide] |
| 10 | Cc1cc(N2CCc3c(c(C)nn3CC34CCC(NC(=O)CCN)(CC3)CC4)C2)c2cnn(C)c2n1 [compound 115, 3-amino-N-(4-((5-(1,6-dimethyl-1H-pyrazolo[3,4-b]pyridin-4-yl)-3-methyl-4,5,6,7-tetrahydro-1H-pyrazolo[4,3-c]pyridin-1-yl)methyl)bicyclo[2.2.2]octan-1-yl)propanamide] |
| 2 | CN[C@H](C)C(=O)NC12CCC(Cn3nc(C)c4c3CCN(c3cc(C)nc5c3cnn5C)C4)(CC1)CC2 [compound 117, (R)-N-(4-((5-(1,6-dimethyl-1H-pyrazolo[3,4-b]pyridin-4-yl)-3-methyl-4,5,6,7-tetrahydro-1H-pyrazolo[4,3-c]pyridin-1-yl)methyl)bicyclo[2.2.2]octan-1-yl)-2-(methylamino)propanamide] |
| 2 | CN[C@@H](C)C(=O)NC12CCC(Cn3nc(C)c4c3CCN(c3cc(C)nc5c3cnn5C)C4)(CC1)CC2 [compound 118] |
| 5 | CNCC(=O)NC12CCC(Cn3nc(C)c4c3CCN(c3cc(C)nc5c3cnn5C)C4)(CC1)CC2 [compound 121, N-(4-((5-(1,6-dimethyl-1H-pyrazolo[3,4-b]pyridin-4-yl)-3-methyl-4,5,6,7-tetrahydro-1H-pyrazolo[4,3-c]pyridin-1-yl)methyl)bicyclo[2.2.2]octan-1-yl)-2-(methylamino)acetamide] |
| 20 | CCNCCC(=O)NC12CCC(Cn3nc(C)c4c3CCN(c3cc(C)nc5c3cnn5C)C4)(CC1)CC2 [compound 126, N-(4-((5-(1,6-dimethyl-1H-pyrazolo[3,4-b]pyridin-4-yl)-3-methyl-4,5,6,7-tetrahydro-1H-pyrazolo[4,3-c]pyridin-1-yl)methyl)bicyclo[2.2.2]octan-1-yl)-3-(ethylamino)propanamide] |
| 3 | Cc1cc(N2CCc3c(c(C)nn3CC34CCC(NC(=O)C5CNC5)(CC3)CC4)C2)c2cnn(C)c2n1 [compound 131, N-(4-((5-(1,6-dimethyl-1H-pyrazolo[3,4-b]pyridin-4-yl)-3-methyl-4,5,6,7-tetrahydro-1H-pyrazolo[4,3-c]pyridin-1-yl)methyl)bicyclo[2.2.2]octan-1-yl)azetidine-3-carboxamide] |
| < 0.508 | CCN(C)CC(=O)NC12CCC(Cn3nc(C)c4c3CCN(c3cc(C)nc5c3cnn5C)C4)(CC1)CC2 [compound 132, N-(4-((5-(1,6-dimethyl-1H-pyrazolo[3,4-b]pyridin-4-yl)-3-methyl-4,5,6,7-tetrahydro-1H-pyrazolo[4,3-c]pyridin-1-yl)methyl)bicyclo[2.2.2]octan-1-yl)-2-(ethyl(methyl)amino)acetamide] |
